The values below come from patent US11638737B2, “Food compositions and pharmaceutical compositions containing Filipendula glaberrima extract for lowering blood cholesterol levels and for ameliorating atherosclerosis” (KOREA INSTITUTE OF SCIENCE AND TECHNOLOGY, priority 2019, dated 2023).

Converted amounts (≈) assume the structure as drawn. Bounds are passed on as bounds.

Test [1] in a line: DPPH radical scavenging effect. To be noted: samples marked (μM); read-out: SC50 DPPH radical. An excerpt: Data are expressed as an average of measurements conducted in triplicate.
Background: The DPPH test is a chemical assay of radical scavenging.

The next test has as its target T1, HMG-CoA reductase (Homo sapiens, UniProt P04035).
T1 construct: purchased Sigma-Aldrich (St. Louis, Mo.)
T1 sequence (P04035 426-888 limits assumed): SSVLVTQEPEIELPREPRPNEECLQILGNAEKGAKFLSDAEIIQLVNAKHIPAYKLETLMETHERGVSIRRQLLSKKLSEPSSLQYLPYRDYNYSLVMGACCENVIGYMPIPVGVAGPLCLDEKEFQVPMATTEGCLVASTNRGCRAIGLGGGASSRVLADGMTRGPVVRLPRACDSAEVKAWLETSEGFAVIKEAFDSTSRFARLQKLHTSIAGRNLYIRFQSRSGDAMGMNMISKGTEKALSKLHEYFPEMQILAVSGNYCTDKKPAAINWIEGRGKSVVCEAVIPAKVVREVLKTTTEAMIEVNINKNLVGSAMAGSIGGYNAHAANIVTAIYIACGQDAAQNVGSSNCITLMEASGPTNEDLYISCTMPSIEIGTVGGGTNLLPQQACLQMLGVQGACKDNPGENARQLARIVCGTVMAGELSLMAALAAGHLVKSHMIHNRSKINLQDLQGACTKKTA
Kind of test: HMG-CoA reductase inhibitory effect (modified Perchellet's assay, absorbance at 340 nm). It is filed as biochemical. To be noted: mean ± standard error; values without (μM) mark. As for the experimental part:
Transparent 96-well plates were purchased from SPL Lifesciences (Pocheon). A VERSA Max™ microplate reader from Molecular Devices was used.
The sample for detection was dissolved in DMSO before use.
The activity of HMG-CoA reductase was compared and analyzed by recording the absorbance at 340 nm at 37° C. for 10 minutes using a VERSA Max™ microplate reader. […] The experiment was repeated three times.

Test [2] deals with lipid peroxide formation in liver homogenate. Kind of test: Lipid peroxide production inhibitory effect (LPO) in rat liver homogenate. It is filed as biochemical, Sprague-Dawley rats. To be noted: for IC50: samples marked (μM). As for the experimental part: The lipid peroxide production inhibitory effect (LPO) of the extract and the isolated compounds were tested. Lipid peroxide is a substance produced by peroxidation of lipids through various oxidation reactions. Reactive oxygen species, free radicals and the like oxidize phospholipids of cell membranes containing great amounts of unsaturated fatty acids, producing lipid peroxides in the cell membranes. When the lipid peroxides are accumulated in the cell membranes, the fluidity and functionality of the cell membrane are deteriorated, resulting in local disorders in tissues such as inhibition of cell functions and changes in cell structures.
Therefore, the effects of inhibiting lipid peroxide production by the Filipendula glaberrima leaf and stem extracts and the isolated compounds were measured as follows. The animals used in the experiment were male Sprague-Dawley rats, and only water was supplied for 24 hours before the experiment. […] The experimental animals were subjected to respiratory anesthesia with isoflurane, and dissected and a 0.15 M ice-cold KCl solution was perfused through the liver portal vein to remove blood from the liver and extract the liver. […] 50 mM Tris-HCl buffer (pH 7.5) was added to 300 μl of a liver homogenate (11 mg protein/ml), 10 μM FeSO4, 10 μl of a test drug and 0.4 mM ascorbic acid to adjust the total volume to 1 ml, and then the resulting mixture was incubated at 37° C. for 30 minutes.

Test [3] in a line: Xanthine/xanthine oxidase-induced superoxide anion scavenging effect. To be noted: samples marked (μM); read-out: SC50 Superoxide anion radical (O2−). Type of test: biochemical. The procedure:
Specifically, 0.1 mM xanthine, 0.1 mM EDTA, 50 μg/ml of bovine serum albumin (BSA), […] nitroblue tetrazolium (NBT), a 40 mM Na2CO3 solution, a test sample solution diluted at each concentration and a solution with a final volume of 200 μl containing 1.4×10^−3 unit XOD were mixed and reacted at 25° C. for 20 minutes.

With `C[C@@H]1CC[C@]2(C(=O)O[C@@H]3OC(COC(=O)c4cc(O)c(O)c(O)c4)[C@@H](O)[C@H](O)C3O)CC[C@]3(C)C(=CC[C@@H]4[C@@]5(C)C[C@@H](O)[C@H](O)C(C)(C)[C@@H]5CC[C@]43C)[C@@H]2[C@]1(C)O` (some centres unmarked) [Compound 1], the IC50 in test [1] is 47.88 ± 0.01 µM; at HMG-CoA reductase, 175 ± 2.2 µM; in test [2], 89 ± 3.69 µM.

For the molecule `COC(=O)c1cc(O)c(O)c(O)c1Oc1cc2c(c(O)c1O)-c1c(cc(O)c(O)c1O)C(=O)O[C@@H]1C(COC2=O)OC(O)C(OC(=O)c2cc(O)c(O)c(O)c2)C1OC(=O)c1cc(O)c(O)c(O)c1` (some centres unmarked) [Compound 2], the IC50 came out at 3.62 ± 0.57 µM in test [1], 41.1 ± 2.24 µM in test [3], 1.46 ± 0.22 µM against HMG-CoA reductase and 7.99 ± 0.05 µM in test [2].

Regarding `O=c1c(O)c(-c2ccc(O)c(O)c2)oc2cc(O)cc(O)c12` [Quercetin], the IC50 in test [1] was 19 ± 2.25 µM; in test [3] it was above 50 µM; in test [2] it was 29.6 ± 1.32 µM. In addition, in test [2] (rat liver homogenate, FeSO4/ascorbic acid, TBA, 535 nm), the “IC50 LPO” value amounted to 29.57 ± 1.32 µg/mL (≈ 97.8 µM).

Molecule `Oc1ccc(C=Cc2cc(O)cc(O)c2)cc1` [Resveratrol] registered an IC50 in test [2] of 35.64 ± 0.01 µM.

Turning to `Cc1c(C)c2c(c(C)c1O)CCC(C)(C(=O)O)O2` (centres unmarked) [Trolox], the values for the IC50 in test [1], in test [3] and in test [2] were 47.5 ± 0.41 µM, above 50 µM and above 50 µM, respectively.

For the molecule `O=C1O[C@H]([C@@H](O)CO)C(O)=C1O` [Vit. C, ascorbic acid], the values for the IC50 in test [1] and in test [3] were 29.3 ± 2.49 µM and above 50 µM, respectively.
